Activity calls are given as the source filed them. The calls are words filed in the database; no cut-off is given here.
Columns and labels:
MV4-11 = test: Growth inhibition of human MV4-11 cells measured after 72 hrs; assay type: functional
[1] = biological target: T1, Bromodomain-containing protein 4 (Homo sapiens, UniProt O60885); test: Inhibition of BRD4 bromodomain 1/2 (unknown origin) by Alphascreen assay
[2] = biological target: T1, Bromodomain-containing protein 4; test: Inhibition of BRD4 bromodomain 1/2 (unknown origin) assessed as dissociation constant by DiscoveRx BROMOscan assay
[3] = AUC(0 to t) in CD-1 mouse plasma at 10 mg/kg, sc; assay type: ADME, organism-based; set-up: dose 10 mg/kg, route sc
[4] = Tmax in CD-1 mouse brain at 50 mg/kg, po; assay type: ADME, organism-based
[5] = Cmax in CD-1 mouse brain at 50 mg/kg, po; assay type: ADME, organism-based; set-up: dose 50 mg/kg, route po
[6] = Half-life in CD-1 mouse brain at 50 mg/kg, po; assay type: ADME, organism-based
[7] = AUC(0 to t) in CD-1 mouse brain at 50 mg/kg, po; assay type: ADME, organism-based; set-up: dose 50 mg/kg, route po
[8] = Tmax in rat plasma at 50 mg/kg, po; assay type: ADME, organism-based
[9] = Cmax in rat plasma at 50 mg/kg, po; assay type: ADME, organism-based; set-up: dose 50 mg/kg, route po
[10] = Half-life in rat plasma at 50 mg/kg, po; assay type: ADME, organism-based
[11] = AUC(0 to t) in rat plasma at 50 mg/kg, po; assay type: ADME, organism-based; set-up: dose 50 mg/kg, route po
[12] = Half-life in CD-1 mouse plasma at 10 mg/kg, sc; assay type: ADME, organism-based
[13] = Cmax in CD-1 mouse plasma at 10 mg/kg, sc; assay type: ADME, organism-based; set-up: dose 10 mg/kg, route sc
[14] = Tmax in CD-1 mouse plasma at 10 mg/kg, sc; assay type: ADME, organism-based
[15] = AUC(0 to t) in CD-1 mouse plasma at 50 mg/kg, po; assay type: ADME, organism-based; set-up: dose 50 mg/kg, route po
[16] = Half-life in CD-1 mouse plasma at 50 mg/kg, po; assay type: ADME, organism-based
[17] = Cmax in CD-1 mouse plasma at 50 mg/kg, po; assay type: ADME, organism-based; set-up: dose 50 mg/kg, route po
[18] = Tmax in CD-1 mouse plasma at 50 mg/kg, po; assay type: ADME, organism-based
Cytochrome P450 1A2 = biological target: T2, Cytochrome P450 1A2 (Homo sapiens, UniProt P05177); test: Inhibition of CYP1A2 (unknown origin) by fluorescence based assay; assay type: ADME
T2 sequence (P05177 whole entry): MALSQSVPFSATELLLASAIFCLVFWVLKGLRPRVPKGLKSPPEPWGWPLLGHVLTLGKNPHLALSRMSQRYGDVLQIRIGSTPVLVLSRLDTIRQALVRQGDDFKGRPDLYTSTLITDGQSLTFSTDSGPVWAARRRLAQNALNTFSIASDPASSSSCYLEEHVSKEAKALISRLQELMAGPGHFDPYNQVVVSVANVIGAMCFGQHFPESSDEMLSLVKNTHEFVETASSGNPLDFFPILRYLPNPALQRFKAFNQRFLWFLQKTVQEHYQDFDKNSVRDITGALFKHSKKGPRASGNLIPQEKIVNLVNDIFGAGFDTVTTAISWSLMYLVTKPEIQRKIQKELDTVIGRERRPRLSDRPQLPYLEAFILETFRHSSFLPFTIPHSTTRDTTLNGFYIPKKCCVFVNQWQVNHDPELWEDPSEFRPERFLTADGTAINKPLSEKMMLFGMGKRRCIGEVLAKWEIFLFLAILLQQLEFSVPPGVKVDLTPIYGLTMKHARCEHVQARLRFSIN

Cytochrome P450 2C9 = Cytochrome P450 2C9 (Homo sapiens, UniProt P11712); test: Inhibition of CYP2C9 (unknown origin) by fluorescence based assay; assay type: ADME
Cytochrome P450 2C19 = Cytochrome P450 2C19 (Homo sapiens, UniProt P33261); test: Inhibition of CYP2C19 (unknown origin) by fluorescence based assay; assay type: ADME
Cytochrome P450 2D6 = Cytochrome P450 2D6 (Homo sapiens, UniProt P10635); test: Inhibition of CYP2D6 (unknown origin) by fluorescence based assay; assay type: ADME
Cytochrome P450 3A4 = Cytochrome P450 3A4 (Homo sapiens, UniProt P08684); test: Inhibition of CYP3A4 (unknown origin) by fluorescence based assay; assay type: ADME
[19] = Stability in human liver microsomes assessed as half-life; assay type: ADME, Microsome
[20] = Stability in mouse liver microsomes assessed as half-life; assay type: ADME, Microsome
[21] = biological target: Non-receptor tyrosine-protein kinase TYK2 (Homo sapiens) (UniProt P29597); test: Inhibition of TYK2 (unknown origin) at 10 uM by DiscoverX KINOMEscan relative to control
[22] = biological target: Tyrosine-protein kinase JAK1 (Homo sapiens) (UniProt P23458); test: Inhibition of JAK1 JH2 (unknown origin) at 10 uM by DiscoverX KINOMEscan relative to control
[23] = biological target: Histone acetyltransferase p300 (Homo sapiens) (UniProt Q09472); test: Inhibition of EP300 (unknown origin) at 10 uM by DiscoverX BROMOscan assay
[24] = biological target: CREB-binding protein (Homo sapiens) (UniProt Q92793); test: Inhibition of CREBBP (unknown origin) at 10 uM by DiscoverX BROMOscan assay
Peregrin (Homo sapiens) = biological target: T3, Peregrin (Homo sapiens) (UniProt P55201); test: Inhibition of BRPF1 (unknown origin) at 10 uM by DiscoverX BROMOscan assay
T3 sequence (whole entry): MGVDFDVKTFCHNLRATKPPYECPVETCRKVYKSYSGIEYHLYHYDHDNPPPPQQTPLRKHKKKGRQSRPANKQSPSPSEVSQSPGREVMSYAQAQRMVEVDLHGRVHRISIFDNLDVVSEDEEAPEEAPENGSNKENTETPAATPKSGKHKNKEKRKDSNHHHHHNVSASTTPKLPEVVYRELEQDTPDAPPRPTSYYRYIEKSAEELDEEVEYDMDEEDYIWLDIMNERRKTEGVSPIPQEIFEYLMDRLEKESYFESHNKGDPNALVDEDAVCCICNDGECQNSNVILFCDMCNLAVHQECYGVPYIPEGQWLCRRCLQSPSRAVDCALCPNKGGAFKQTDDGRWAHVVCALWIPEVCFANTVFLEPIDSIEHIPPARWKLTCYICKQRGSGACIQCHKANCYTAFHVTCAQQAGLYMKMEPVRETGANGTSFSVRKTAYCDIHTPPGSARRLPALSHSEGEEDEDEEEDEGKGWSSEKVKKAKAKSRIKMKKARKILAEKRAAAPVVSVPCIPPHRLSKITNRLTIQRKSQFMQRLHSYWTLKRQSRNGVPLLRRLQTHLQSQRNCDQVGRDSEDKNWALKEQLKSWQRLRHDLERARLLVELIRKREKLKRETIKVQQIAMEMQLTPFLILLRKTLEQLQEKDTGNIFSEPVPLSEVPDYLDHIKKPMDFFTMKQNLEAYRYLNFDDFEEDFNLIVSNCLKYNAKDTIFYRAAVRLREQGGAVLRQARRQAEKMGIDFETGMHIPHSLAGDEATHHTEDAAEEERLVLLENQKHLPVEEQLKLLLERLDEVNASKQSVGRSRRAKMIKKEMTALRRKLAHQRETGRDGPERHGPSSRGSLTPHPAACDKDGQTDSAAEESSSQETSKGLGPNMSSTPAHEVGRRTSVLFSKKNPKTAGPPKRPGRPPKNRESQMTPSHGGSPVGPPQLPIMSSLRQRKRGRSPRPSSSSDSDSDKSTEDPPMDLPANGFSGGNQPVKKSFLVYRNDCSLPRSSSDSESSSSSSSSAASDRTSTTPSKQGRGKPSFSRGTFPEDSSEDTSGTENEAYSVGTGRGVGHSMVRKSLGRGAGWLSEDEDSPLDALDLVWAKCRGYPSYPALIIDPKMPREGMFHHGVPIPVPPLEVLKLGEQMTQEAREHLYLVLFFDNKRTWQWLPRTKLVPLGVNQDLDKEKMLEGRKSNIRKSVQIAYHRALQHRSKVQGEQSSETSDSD

[25] = biological target: T4, Bromodomain-containing protein 9 (Homo sapiens) (UniProt Q9H8M2); test: Inhibition of BRD9 (unknown origin) at 10 uM by DiscoverX BROMOscan assay
T4 sequence (whole entry): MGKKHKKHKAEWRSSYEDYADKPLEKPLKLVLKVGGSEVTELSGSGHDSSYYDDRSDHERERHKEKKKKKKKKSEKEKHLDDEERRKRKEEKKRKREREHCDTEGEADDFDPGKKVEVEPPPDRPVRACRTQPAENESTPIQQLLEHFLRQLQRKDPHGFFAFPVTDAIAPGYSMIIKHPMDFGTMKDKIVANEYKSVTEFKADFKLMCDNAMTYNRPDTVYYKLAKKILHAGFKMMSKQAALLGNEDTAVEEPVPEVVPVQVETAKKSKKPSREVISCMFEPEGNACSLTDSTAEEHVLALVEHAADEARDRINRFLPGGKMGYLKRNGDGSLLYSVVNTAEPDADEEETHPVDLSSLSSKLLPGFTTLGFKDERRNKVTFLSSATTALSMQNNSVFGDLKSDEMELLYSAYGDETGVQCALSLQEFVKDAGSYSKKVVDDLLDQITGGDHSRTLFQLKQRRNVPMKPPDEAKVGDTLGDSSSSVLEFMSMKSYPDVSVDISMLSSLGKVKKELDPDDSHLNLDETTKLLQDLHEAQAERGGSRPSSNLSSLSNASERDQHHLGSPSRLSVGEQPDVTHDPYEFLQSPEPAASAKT

[26] = Toxicity in mouse xenografted with human Kasumi 1 cells assessed as effect on body weight at 50 mg/kg, po administered once a day for 15 days starting from 25 days after transplantation; assay type: organism-based; conditions: in vivo, 360 h, time 15 day
[27] = Toxicity in mouse xenografted with human Kasumi 1 cells assessed as signs of toxicity at 50 mg/kg, po administered once a day for 15 days starting from 25 days after transplantation; assay type: organism-based; conditions: in vivo, 360 h, time 15 day
Kasumi 1 = test: Antitumor activity against human Kasumi 1 cells xenografted in mouse assessed as tumor growth inhibition at 50 mg/kg, po administered once a day for 15 days starting from 25 days after transplantation relative to control; assay type: functional; conditions: Kasumi 1, 360 h, time 15 day, read-out: TGI

Chain of Non-receptor tyrosine-protein kinase TYK2 (Homo sapiens) (P29597 whole entry): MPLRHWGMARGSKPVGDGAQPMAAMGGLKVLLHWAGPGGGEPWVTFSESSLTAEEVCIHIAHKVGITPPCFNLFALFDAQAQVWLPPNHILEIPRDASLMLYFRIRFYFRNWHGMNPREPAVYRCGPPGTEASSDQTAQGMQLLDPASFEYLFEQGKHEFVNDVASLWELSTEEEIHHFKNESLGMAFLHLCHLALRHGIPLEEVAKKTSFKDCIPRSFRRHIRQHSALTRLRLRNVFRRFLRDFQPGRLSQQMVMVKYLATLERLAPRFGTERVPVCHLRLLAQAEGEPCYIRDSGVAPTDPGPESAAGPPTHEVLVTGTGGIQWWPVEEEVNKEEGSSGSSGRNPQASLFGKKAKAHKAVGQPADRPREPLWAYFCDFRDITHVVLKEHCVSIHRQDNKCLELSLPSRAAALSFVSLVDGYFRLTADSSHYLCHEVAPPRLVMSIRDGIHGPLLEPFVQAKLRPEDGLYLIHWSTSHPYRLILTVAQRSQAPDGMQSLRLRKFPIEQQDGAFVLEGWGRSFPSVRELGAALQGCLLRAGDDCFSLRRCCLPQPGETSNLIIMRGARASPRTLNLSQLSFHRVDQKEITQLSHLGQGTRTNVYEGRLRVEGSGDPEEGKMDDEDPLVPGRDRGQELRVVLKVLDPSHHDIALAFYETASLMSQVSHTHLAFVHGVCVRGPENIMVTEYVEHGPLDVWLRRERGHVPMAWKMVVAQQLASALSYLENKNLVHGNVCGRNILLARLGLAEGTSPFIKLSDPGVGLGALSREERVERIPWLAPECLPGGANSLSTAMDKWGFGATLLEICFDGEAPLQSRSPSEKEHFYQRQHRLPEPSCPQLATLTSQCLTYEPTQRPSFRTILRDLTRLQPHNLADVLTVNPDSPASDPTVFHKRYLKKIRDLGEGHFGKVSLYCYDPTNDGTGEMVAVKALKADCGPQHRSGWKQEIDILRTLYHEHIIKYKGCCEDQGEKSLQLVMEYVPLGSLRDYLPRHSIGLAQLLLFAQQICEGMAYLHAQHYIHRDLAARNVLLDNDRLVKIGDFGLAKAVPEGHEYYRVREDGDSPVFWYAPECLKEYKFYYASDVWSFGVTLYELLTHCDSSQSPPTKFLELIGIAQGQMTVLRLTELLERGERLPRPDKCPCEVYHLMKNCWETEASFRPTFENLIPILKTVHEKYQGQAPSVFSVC
Chain of Histone acetyltransferase p300 (Homo sapiens) (Q09472 whole entry): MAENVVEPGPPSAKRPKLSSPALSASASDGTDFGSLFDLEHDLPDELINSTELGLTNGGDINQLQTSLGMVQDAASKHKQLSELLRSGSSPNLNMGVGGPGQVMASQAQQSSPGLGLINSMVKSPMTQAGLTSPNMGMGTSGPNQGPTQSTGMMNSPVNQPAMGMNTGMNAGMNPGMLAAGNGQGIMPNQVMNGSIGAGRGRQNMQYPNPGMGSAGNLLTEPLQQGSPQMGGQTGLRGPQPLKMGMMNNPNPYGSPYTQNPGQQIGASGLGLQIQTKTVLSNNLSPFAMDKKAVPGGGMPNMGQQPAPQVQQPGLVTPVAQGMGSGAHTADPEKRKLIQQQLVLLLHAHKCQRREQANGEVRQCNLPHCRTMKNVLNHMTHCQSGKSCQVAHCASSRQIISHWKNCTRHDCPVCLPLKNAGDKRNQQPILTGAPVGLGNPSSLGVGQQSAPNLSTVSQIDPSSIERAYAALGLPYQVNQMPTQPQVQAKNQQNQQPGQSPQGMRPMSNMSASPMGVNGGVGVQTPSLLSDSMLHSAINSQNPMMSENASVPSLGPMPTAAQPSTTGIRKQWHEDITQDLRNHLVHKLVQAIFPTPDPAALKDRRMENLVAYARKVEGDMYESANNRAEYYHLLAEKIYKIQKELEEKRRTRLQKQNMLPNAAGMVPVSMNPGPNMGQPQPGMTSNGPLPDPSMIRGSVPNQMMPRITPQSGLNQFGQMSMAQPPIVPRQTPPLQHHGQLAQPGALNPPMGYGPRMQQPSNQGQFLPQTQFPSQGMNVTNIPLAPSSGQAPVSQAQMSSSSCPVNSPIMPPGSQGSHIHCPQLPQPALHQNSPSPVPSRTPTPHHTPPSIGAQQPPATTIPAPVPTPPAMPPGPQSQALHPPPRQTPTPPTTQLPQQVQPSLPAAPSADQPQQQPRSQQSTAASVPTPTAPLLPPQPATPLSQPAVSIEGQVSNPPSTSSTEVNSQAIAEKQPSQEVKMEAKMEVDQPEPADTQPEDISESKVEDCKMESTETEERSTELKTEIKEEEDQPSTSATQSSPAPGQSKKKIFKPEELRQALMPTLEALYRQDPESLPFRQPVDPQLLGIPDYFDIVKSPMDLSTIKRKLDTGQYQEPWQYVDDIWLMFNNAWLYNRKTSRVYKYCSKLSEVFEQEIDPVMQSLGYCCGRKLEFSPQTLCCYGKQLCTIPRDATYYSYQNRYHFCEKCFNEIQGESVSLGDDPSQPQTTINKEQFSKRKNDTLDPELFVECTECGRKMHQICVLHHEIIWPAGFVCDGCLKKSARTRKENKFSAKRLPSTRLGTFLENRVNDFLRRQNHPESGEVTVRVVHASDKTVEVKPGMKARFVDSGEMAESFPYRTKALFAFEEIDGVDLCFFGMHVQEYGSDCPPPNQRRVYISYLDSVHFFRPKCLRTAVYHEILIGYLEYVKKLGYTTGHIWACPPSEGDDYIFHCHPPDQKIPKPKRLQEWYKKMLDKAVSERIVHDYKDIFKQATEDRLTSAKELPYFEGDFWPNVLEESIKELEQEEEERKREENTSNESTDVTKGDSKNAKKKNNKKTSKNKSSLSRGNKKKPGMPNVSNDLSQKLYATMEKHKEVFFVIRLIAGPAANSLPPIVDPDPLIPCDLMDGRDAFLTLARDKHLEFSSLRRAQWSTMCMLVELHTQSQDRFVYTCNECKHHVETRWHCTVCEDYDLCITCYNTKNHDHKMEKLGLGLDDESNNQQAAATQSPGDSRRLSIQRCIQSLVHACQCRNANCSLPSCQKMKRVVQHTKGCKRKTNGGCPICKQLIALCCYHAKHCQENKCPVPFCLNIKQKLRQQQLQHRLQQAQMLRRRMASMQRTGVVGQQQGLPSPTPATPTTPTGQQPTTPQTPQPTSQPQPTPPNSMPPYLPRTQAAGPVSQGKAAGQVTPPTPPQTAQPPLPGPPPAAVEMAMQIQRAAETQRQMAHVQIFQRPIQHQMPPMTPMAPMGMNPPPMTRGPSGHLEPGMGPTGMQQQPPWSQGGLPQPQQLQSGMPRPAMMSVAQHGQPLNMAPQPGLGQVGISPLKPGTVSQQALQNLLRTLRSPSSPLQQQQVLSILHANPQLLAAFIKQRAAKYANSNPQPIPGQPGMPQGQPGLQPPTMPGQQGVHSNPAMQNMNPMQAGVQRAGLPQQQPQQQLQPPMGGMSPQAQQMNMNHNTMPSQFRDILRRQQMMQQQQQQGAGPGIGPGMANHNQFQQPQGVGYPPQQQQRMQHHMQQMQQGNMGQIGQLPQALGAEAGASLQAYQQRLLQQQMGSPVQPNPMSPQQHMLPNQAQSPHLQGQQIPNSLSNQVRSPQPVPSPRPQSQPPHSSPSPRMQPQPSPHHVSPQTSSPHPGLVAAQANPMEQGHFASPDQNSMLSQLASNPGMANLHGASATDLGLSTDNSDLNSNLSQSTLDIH
Chain of Cytochrome P450 3A4 (P08684 whole entry): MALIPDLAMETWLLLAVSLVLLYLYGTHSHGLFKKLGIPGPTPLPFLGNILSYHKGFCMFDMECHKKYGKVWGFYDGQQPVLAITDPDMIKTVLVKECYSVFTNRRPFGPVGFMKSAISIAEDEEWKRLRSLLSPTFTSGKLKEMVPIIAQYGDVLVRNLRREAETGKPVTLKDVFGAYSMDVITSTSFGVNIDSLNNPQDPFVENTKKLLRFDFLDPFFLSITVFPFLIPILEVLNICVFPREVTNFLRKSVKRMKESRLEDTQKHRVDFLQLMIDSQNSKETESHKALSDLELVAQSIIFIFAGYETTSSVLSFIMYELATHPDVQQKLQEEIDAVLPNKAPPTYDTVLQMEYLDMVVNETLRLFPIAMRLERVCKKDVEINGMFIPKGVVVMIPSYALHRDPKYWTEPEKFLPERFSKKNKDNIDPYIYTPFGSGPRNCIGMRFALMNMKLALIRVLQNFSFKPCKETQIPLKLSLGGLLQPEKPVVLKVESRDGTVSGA
Chain of Cytochrome P450 2D6 (P10635 whole entry): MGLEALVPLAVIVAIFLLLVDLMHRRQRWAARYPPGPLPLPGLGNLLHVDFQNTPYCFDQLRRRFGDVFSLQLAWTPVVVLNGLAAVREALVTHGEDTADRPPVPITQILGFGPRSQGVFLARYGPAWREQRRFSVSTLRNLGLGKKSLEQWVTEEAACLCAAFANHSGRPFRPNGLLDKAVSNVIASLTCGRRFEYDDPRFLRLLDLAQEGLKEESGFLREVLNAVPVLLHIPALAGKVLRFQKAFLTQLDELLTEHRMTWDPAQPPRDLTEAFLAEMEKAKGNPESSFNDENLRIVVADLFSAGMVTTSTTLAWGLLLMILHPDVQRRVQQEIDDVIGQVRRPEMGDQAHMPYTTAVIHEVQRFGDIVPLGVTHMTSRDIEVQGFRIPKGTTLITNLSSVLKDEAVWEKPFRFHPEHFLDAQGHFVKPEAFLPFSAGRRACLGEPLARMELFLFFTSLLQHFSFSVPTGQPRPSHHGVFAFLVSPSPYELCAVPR
Chain of Cytochrome P450 2C19 (P33261 whole entry): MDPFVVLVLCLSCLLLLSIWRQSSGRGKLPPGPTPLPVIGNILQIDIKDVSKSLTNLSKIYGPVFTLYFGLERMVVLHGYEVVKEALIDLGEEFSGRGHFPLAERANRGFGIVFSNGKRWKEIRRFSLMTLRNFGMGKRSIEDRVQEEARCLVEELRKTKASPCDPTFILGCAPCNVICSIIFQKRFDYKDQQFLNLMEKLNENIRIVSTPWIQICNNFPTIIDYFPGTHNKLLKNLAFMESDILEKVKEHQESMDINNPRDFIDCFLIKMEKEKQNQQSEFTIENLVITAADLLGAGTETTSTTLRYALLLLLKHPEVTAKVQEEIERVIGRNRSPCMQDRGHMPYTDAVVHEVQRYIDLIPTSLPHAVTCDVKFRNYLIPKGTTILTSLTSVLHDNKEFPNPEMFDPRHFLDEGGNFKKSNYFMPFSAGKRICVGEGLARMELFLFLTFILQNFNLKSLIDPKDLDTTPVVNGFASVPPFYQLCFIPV

Cc1noc(C)c1-c1ccc2c(-c3ccccc3)cc(=O)[nH]c2c1
GI50 (MV4-11): 14000 nM | IC50 [1]: 3100 nM | Kd [2]: 7400 nM

Cc1noc(C)c1-c1ccc2[nH]c(=O)cc(NCc3ccc(Cl)cc3)c2c1
GI50 (MV4-11): 1700 nM | Kd [2]: 210 nM

COc1ccccc1CNc1cc(=O)[nH]c2ccc(-c3c(C)noc3C)cc12
GI50 (MV4-11): 1040 nM | Kd [2]: 35 nM

Cc1noc(C)c1-c1ccc2[nH]c(=O)cc(N3CCOCC3)c2c1
Kd [2]: 570 nM

Cc1noc(C)c1-c1ccc2[nH]c(=O)cc(-c3ccccc3)c2c1
GI50 (MV4-11): 16000 nM | IC50 [1]: 3100 nM | Kd [2]: 1300 nM

Cc1noc(C)c1-c1ccc2[nH]c(=O)cc(O)c2c1
GI50 (MV4-11): > 100000 nM | IC50 [1]: 16000 nM | Kd [2]: 3400 nM

Cc1noc(C)c1-c1ccc2[nH]c(=O)cc(NCc3ccccc3Cl)c2c1
GI50 (MV4-11): 1660 nM | Kd [2]: 55 nM

Cc1noc(C)c1-c1ccc2[nH]c(=O)cc(NCc3cccc(Cl)c3)c2c1
GI50 (MV4-11): 1220 nM | Kd [2]: 28 nM

Cc1noc(C)c1-c1ccc2[nH]c(=O)cc(NCc3cc(Cl)cc(Cl)c3)c2c1
GI50 (MV4-11): 1400 nM | Kd [2]: 170 nM

Cc1noc(C)c1-c1ccc2[nH]c(=O)cc(NCc3ccccc3)c2c1
AUC(0-t) [3]: 25100 ng·h/mL | Tmax [4]: 0.5 h | Cmax [5]: 289 ng/mL | half-life [6]: 1.39 h | AUC(0-t) [7]: 755 ng·h/mL | Tmax [8]: 1.5 h | Cmax [9]: 9340 ng/mL | half-life [10]: 2 h | AUC(0-t) [11]: 34600 ng·h/mL | GI50 (MV4-11): 595 nM | half-life [12]: 2.33 h | Cmax [13]: 7770 ng/mL | Tmax [14]: 1 h | AUC(0-t) [15]: 178000 ng·h/mL | half-life [16]: 1.02 h | Cmax [17]: 60900 ng/mL | Tmax [18]: 2 h | IC50 (Cytochrome P450 1A2): > 30000 nM | IC50 (Cytochrome P450 2C9): 6770 nM | IC50 (Cytochrome P450 2C19): > 30000 nM | IC50 (Cytochrome P450 2D6): > 30000 nM | IC50 (Cytochrome P450 3A4): > 30000 nM | half-life [19]: 0.202 h | half-life [20]: 0.412 h | inhibition [21]: > 65% | inhibition [22]: > 65% | inhibition [23]: Active | inhibition [24]: Active | inhibition (Peregrin (Homo sapiens)): Active | inhibition [25]: Active | IC50 [1]: 1100 nM | Kd [2]: 44 nM | Activity [26]: Non-Toxic | Activity [27]: Non-Toxic | inhibition in vivo at 50 mg/kg (Kasumi 1): 60%
